Assay results from PubChem BioAssay AID248 (DTP/NCI, 2004).
Where “and” joins values, the source holds several entries; their conditions need not be identical. Equal values may be shown once. Inconclusive results and toxic doses are left out. Cut-off read from the data, not from the text of the source: active = T/C of 150% or more; inactive = T/C below 125%.

Test system: L1210 leukemia ip in BDF1 mice, survival T/C
Experiment: NCI In Vivo Anticancer Drug Screen. Data for tumor model L1210 Leukemia (intraperitoneal) in B6D2F1 (BDF1) mice
Conditions: endpoint: mean survival time, higher = longer survival
How it was run: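 Tumor was transplanted into mice, which were then dosed with test compound or vehicle alone. Survival was recorded for each group, and the treated figure was expressed relative to the control figure.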

[1] = dose: 100.0 mg/kg/injection, schedule: Q04DX002 (ip), vehicle: Klucel (hydroxypropylcellulose) (HPC)
[2] = dose: 200.0 mg/kg/injection, schedule: Q04DX002 (ip), vehicle: Klucel (hydroxypropylcellulose) (HPC)
[3] = dose: 400.0 mg/kg/injection, schedule: Q04DX002 (ip), vehicle: Klucel (hydroxypropylcellulose) (HPC)
[4] = dose: 25.0 mg/kg/injection, schedule: Q04DX002 (ip), vehicle: Klucel (hydroxypropylcellulose) (HPC)
[5] = dose: 100.0 mg/kg/injection, schedule: Q01DX009 (ip), vehicle: saline
[6] = dose: 100.0 mg/kg/injection, schedule: Q04DX003 (ip), vehicle: saline
[7] = dose: 200.0 mg/kg/injection, schedule: Q01DX009 (ip), vehicle: saline
[8] = dose: 200.0 mg/kg/injection, schedule: Q04DX003 (ip), vehicle: saline
[9] = dose: 400.0 mg/kg/injection, schedule: Q04DX003 (ip), vehicle: saline
[10] = dose: 100.0 mg/kg/injection, schedule: Q01DX009 (ip), vehicle: Klucel (hydroxypropylcellulose) (HPC)
[11] = dose: 100.0 mg/kg/injection, schedule: Q04DX003 (ip), vehicle: Klucel (hydroxypropylcellulose) (HPC)
[12] = dose: 200.0 mg/kg/injection, schedule: Q01DX009 (ip), vehicle: Klucel (hydroxypropylcellulose) (HPC)
[13] = dose: 200.0 mg/kg/injection, schedule: Q04DX003 (ip), vehicle: Klucel (hydroxypropylcellulose) (HPC)
[14] = dose: 400.0 mg/kg/injection, schedule: Q01DX009 (ip), vehicle: Klucel (hydroxypropylcellulose) (HPC)
[15] = dose: 400.0 mg/kg/injection, schedule: Q04DX003 (ip), vehicle: Klucel (hydroxypropylcellulose) (HPC)
[16] = dose: 50.0 mg/kg/injection, schedule: Q01DX001 (ip), vehicle: saline
[17] = dose: 100.0 mg/kg/injection, schedule: Q01DX001 (ip), vehicle: saline
[18] = dose: 200.0 mg/kg/injection, schedule: Q01DX001 (ip), vehicle: saline
[19] = dose: 100.0 mg/kg/injection, schedule: Q01DX001 (ip), vehicle: carboxymethylcellulose (CMC)
[20] = dose: 200.0 mg/kg/injection, schedule: Q01DX001 (ip), vehicle: carboxymethylcellulose (CMC)
[21] = dose: 400.0 mg/kg/injection, schedule: Q01DX001 (ip), vehicle: carboxymethylcellulose (CMC)
[22] = dose: 400.0 mg/kg/injection, schedule: Q01DX001 (ip), vehicle: saline
[23] = dose: 75.0 mg/kg/injection, schedule: Q01DX001 (ip), vehicle: saline

Measured: T/C

C=CCc1ccc(OCCOCCN(CC=C(C)C)CC=C(C)C)c(OC)c1
inactive: dose: 12.5 mg/kg/injection, schedule: Q01DX009 (ip), vehicle: Klucel (hydroxypropylcellulose) (HPC) 100 % of control | dose: 12.5 mg/kg/injection, schedule: Q04DX003 (ip), vehicle: Klucel (hydroxypropylcellulose) (HPC) 96 % of control | dose: 25.0 mg/kg/injection, schedule: Q01DX009 (ip), vehicle: Klucel (hydroxypropylcellulose) (HPC) 97 % of control | dose: 25.0 mg/kg/injection, schedule: Q04DX003 (ip), vehicle: Klucel (hydroxypropylcellulose) (HPC) 98 % of control | dose: 50.0 mg/kg/injection, schedule: Q01DX009 (ip), vehicle: Klucel (hydroxypropylcellulose) (HPC) 95 % of control | dose: 50.0 mg/kg/injection, schedule: Q04DX003 (ip), vehicle: Klucel (hydroxypropylcellulose) (HPC) 88 % of control

O=C(N=Nc1c(O)[nH]c2ccc(Br)cc12)c1ccco1
inactive: [1] 111 % of control | [2] 95 % of control | [3] 95 % of control

O=C(O)CCC1(c2ccccc2)CCCC1=O (stereo unspecified)
inactive: dose: 12.5 mg/kg/injection, schedule: Q01DX009 (ip), vehicle: water 101 % of control | dose: 25.0 mg/kg/injection, schedule: Q01DX009 (ip), vehicle: water 104 % of control | dose: 50.0 mg/kg/injection, schedule: Q01DX009 (ip), vehicle: water 98 % of control | dose: 100.0 mg/kg/injection, schedule: Q01DX009 (ip), vehicle: water 95 % of control

C=C1C(=O)OC2C(=O)OC(CCCCCCCC)C12 (stereo unspecified)
inactive: dose: 6.2 mg/kg/injection, schedule: Q04DX002 (ip), vehicle: Klucel (hydroxypropylcellulose) (HPC) 97 % of control | dose: 12.5 mg/kg/injection, schedule: Q04DX002 (ip), vehicle: Klucel (hydroxypropylcellulose) (HPC) 94 % of control | [4] 97 % of control and 104 % of control

COc1ccc(Cl)cc1NC(=O)N/N=C(\C)CC(C)C
inactive: dose: 100.0 mg/kg/injection, schedule: Q01DX009 (ip), vehicle: saline with Tween-80 91 % of control | dose: 100.0 mg/kg/injection, schedule: Q04DX003 (ip), vehicle: saline with Tween-80 97 % of control | dose: 200.0 mg/kg/injection, schedule: Q01DX009 (ip), vehicle: saline with Tween-80 91 % of control | dose: 200.0 mg/kg/injection, schedule: Q04DX003 (ip), vehicle: saline with Tween-80 101 % of control | dose: 400.0 mg/kg/injection, schedule: Q04DX003 (ip), vehicle: saline with Tween-80 101 % of control

COc1ccc(/C=C2\CCC3C(CCCC34OCCO4)C2=O)cc1 (stereo unspecified)
inactive: [5] 88 % of control | [6] 101 % of control | [7] 101 % of control | [8] 97 % of control | dose: 400.0 mg/kg/injection, schedule: Q01DX009 (ip), vehicle: saline 104 % of control | [9] 99 % of control

CC(C)(C)C(=O)CC(=O)C(C)(C)C.CC(C)(C)C(=O)CC(=O)C(C)(C)C.CC(C)(C)C(=O)CC(=O)C(C)(C)C.[Al]
inactive: [10] 91 % of control | [11] 91 % of control | [12] 94 % of control | [13] 94 % of control | [14] 97 % of control | [15] 95 % of control

Cc1n[nH]c(C)c1C(C)C
inactive: [16] 103 % of control | [17] 101 % of control | [18] 86 % of control

OCC(O)C1CCCCN1 (stereo unspecified)
inactive: [5] 91 % of control | [6] 97 % of control | [7] 100 % of control | [8] 97 % of control | [9] 97 % of control

Cc1nc(N)[nH]c(=O)c1CCCNc1cccc(C(F)(F)F)c1
inactive: dose: 100.0 mg/kg/injection, schedule: Q01DX001 (ip), vehicle: Klucel (hydroxypropylcellulose) (HPC) 92 % of control | dose: 200.0 mg/kg/injection, schedule: Q01DX001 (ip), vehicle: Klucel (hydroxypropylcellulose) (HPC) 92 % of control | dose: 400.0 mg/kg/injection, schedule: Q01DX001 (ip), vehicle: Klucel (hydroxypropylcellulose) (HPC) 97 % of control

CSc1ccc(NC(=O)Nc2cc(C)cc(C)n2)cc1
inactive: [10] 94 % of control | [11] 98 % of control | [12] 94 % of control | [13] 103 % of control | [14] 87 % of control | [15] 98 % of control

CC(=O)CC(=O)N(c1ccccn1)c1ccccn1
inactive: [19] 104 % of control | [20] 98 % of control | [21] 98 % of control

O=C1CN(Br)C(=O)N1Br
inactive: [5] 105 % of control | [6] 98 % of control | [7] 107 % of control | [8] 105 % of control | [9] 100 % of control

O=[N+]([O-])c1cccnc1Oc1cccc(C(F)(F)F)c1
inactive: [6] 100 % of control | [8] 105 % of control | [9] 104 % of control

Clc1cccc(Cl)c1/C=N/Nc1nnc(N/N=C/c2c(Cl)cccc2Cl)c2ccccc12
inactive: [16] 103 % of control | [17] 100 % of control | [18] 100 % of control | [22] 103 % of control

CCCCCCCC/C=C\CCCCCCCC(=O)NCC[N+]1(C)CCCCC1
inactive: [23] 94 % of control | dose: 150.0 mg/kg/injection, schedule: Q01DX001 (ip), vehicle: saline 97 % of control

COC(=O)N1C(c2ccccc2)CS1(=O)=O (stereo unspecified)
inactive: [4] 106 % of control | dose: 50.0 mg/kg/injection, schedule: Q04DX002 (ip), vehicle: Klucel (hydroxypropylcellulose) (HPC) 113 % of control | [1] 97 % of control and 109 % of control

CN=C(c1ccc(NC(=O)c2cc(N)cc(C(=O)Nc3ccc(C(=NC)N(C)C)cc3)c2)cc1)N(C)C
inactive: dose: 0.9 mg/kg/injection, schedule: Q01DX Z (ip), vehicle: carboxymethylcellulose (CMC) 94 % of control | dose: 1.87 mg/kg/injection, schedule: Q01DX Z (ip), vehicle: carboxymethylcellulose (CMC) 97 % of control | dose: 3.75 mg/kg/injection, schedule: Q01DX Z (ip), vehicle: carboxymethylcellulose (CMC) 91 % of control | dose: 7.5 mg/kg/injection, schedule: Q01DX Z (ip), vehicle: carboxymethylcellulose (CMC) 100 % of control | dose: 15.0 mg/kg/injection, schedule: Q01DX Z (ip), vehicle: carboxymethylcellulose (CMC) 100 % of control | dose: 30.0 mg/kg/injection, schedule: Q01DX Z (ip), vehicle: carboxymethylcellulose (CMC) 91 % of control

CC(=O)OC1CCCCCCCCC1OC(C)=O (stereo unspecified)
inactive: [19] 103 % of control | [20] 98 % of control | [21] 95 % of control

CCOC(=O)C(OC(=O)c1ccccc1)C(OC(=O)c1ccccc1)C(=O)OCC (stereo unspecified)
inactive: [17] 102 % of control | [18] 100 % of control | [22] 93 % of control

C=CCc1c(C)nc(N)[nH]c1=O
inactive: [11] 104 % of control | [13] 107 % of control | [15] 102 % of control

N#CC12OC1(C#N)C(=O)C1(Cl)C3C=CC(C3)C1(Cl)C2=O (stereo unspecified)
inactive: dose: 12.5 mg/kg/injection, schedule: Q01DX009 (ip), vehicle: saline 102 % of control | dose: 25.0 mg/kg/injection, schedule: Q01DX009 (ip), vehicle: saline 102 % of control | dose: 50.0 mg/kg/injection, schedule: Q01DX009 (ip), vehicle: saline 96 % of control and 106 % of control

O=S1(=O)CC(c2ccc(F)cc2)Nc2ccccc21 (stereo unspecified)
inactive: [11] 102 % of control | [13] 102 % of control | [15] 97 % of control

CN(C)C1CCCC/C=C\C(=O)NC1 (stereo unspecified)
inactive: dose: 25.0 mg/kg/injection, schedule: Q04DX002 (ip), vehicle: saline 99 % of control | dose: 50.0 mg/kg/injection, schedule: Q04DX002 (ip), vehicle: saline 101 % of control | [23] 109 % of control | dose: 100.0 mg/kg/injection, schedule: Q04DX002 (ip), vehicle: saline 99 % of control

O=C(Nc1cc(Cl)ccc1Cl)OCCCl
inactive: [1] 97 % of control | [2] 102 % of control | [3] 97 % of control

O=C1NNC(c2ccccc2)C1c1ccccc1 (stereo unspecified)
inactive: [19] 93 % of control | [20] 95 % of control | [21] 97 % of control
